Source: patent publication US7317006B2, “Thieno[2,3-d]pyrimidines with combined LH and FSH agonistic activity” (N.V. Organon, priority 2001, dated 2008)

What was measured:
[1] = system: immature female mice; assay: In vivo bioactivity: ovulation induction in immature mice; settings: immature female mice primed with urinary FSH (Humegon 12.5 IU/animal), ova in the oviduct counted 24 hours after treatment
Description: To measure LH in vivo activity of compounds, ovulation induction in immature mice can be studied. In this assay immature female mice are primed with urinary FSH and approximately 48 hours later treated with a LH agonistic compound. The animals are killed after LH agonist treatment and the number of ova in the oviduct is microscopically assessed.
To measure in vivo activity of LH/FSH receptor agonistic compounds ovulation induction in immature mice was studied. In this assay immature female mice were primed with urinary FSH (Humegon 12.5 IU/animal). Approximately 48 hours later the animals were treated with a LH/FSH agonistic compound at a dose-level of 50 mg/kg. The animals were killed 24 hours after LH/FSH agonist treatment and the number of ova in the oviduct was microscopically assessed.

[2] = target: T1, human LH receptor (Homo sapiens, UniProt P22888); assay: CHO-LH in vitro bioactivity (CRE-luciferase reporter); assay type: cell-based; settings: CHO cells stably transfected with the human LH receptor, read-out: EC50 CHO LHR
T1 construct: expressed in transfected cells; host or cells: CHO cells, cotransfected with CRE/promotor-luciferase reporter
Description: (§1) It has been shown that compounds of the above mentioned formula I show agonistic LH and FSH activity. […] Typically the FSH activity ranges from an activity of about 1% of the LH agonist stimulation to about 10% of the LH agonist stimulation.
(§2) LH agonistic activity of compounds were tested in Chinese Hamster Ovary (CHO) cells stably transfected with the human receptor and cotransfected with a cAMP responsive element (CRE)/promotor directing the expression of a firefly luciferase reporter gene. Binding of ligand to the Gs-coupled LH receptor will result in an increase of cAMP, which in turn will induce an increased transactivation of the luciferase reporter construct. The luciferase signal was quantified using a luminescence counter. For test compounds, EC50 values (concentration of test compound causing half-maximal (50%) stimulation) were calculated. For that purpose the software program GraphPad PRISM, version 3.0 (GraphPad software Inc., San Diego) was used.

[3] = target: T2, human FSH receptor (Homo sapiens, UniProt P23945); assay: CHO-FSH in vitro bioactivity (CRE-luciferase reporter); assay type: cell-based; settings: CHO cells transfected with the human FSH receptor and luciferase reporter gene; read-out: EC50 CHO FSHR
T2 construct: expressed in transfected cells; host or cells: CHO cells, transfected with luciferase reporter gene
T2 sequence (P23945 18-695): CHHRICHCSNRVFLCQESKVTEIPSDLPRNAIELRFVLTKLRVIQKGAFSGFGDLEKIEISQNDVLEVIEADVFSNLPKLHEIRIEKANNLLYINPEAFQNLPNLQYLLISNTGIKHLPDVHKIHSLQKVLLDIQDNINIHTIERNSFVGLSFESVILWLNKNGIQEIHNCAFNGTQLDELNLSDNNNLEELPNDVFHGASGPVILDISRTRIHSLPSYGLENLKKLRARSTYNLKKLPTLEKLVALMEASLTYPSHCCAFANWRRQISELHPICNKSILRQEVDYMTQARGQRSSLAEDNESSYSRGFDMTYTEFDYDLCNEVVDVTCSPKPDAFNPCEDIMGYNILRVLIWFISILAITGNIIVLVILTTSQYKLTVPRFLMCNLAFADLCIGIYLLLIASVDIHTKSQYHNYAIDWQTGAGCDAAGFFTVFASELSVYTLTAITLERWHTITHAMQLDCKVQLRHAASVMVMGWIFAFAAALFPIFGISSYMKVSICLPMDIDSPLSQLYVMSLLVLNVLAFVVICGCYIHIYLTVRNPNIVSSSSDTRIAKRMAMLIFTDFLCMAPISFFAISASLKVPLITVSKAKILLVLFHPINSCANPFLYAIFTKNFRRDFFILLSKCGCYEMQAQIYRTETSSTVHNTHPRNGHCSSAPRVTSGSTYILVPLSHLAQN
Description: as §1, §2
In a similar way FSH agonistic activity of compounds was tested in CHO cells transfected with the luciferase reporter gene and the human FSH receptor.

T1 sequence (P22888 27-699): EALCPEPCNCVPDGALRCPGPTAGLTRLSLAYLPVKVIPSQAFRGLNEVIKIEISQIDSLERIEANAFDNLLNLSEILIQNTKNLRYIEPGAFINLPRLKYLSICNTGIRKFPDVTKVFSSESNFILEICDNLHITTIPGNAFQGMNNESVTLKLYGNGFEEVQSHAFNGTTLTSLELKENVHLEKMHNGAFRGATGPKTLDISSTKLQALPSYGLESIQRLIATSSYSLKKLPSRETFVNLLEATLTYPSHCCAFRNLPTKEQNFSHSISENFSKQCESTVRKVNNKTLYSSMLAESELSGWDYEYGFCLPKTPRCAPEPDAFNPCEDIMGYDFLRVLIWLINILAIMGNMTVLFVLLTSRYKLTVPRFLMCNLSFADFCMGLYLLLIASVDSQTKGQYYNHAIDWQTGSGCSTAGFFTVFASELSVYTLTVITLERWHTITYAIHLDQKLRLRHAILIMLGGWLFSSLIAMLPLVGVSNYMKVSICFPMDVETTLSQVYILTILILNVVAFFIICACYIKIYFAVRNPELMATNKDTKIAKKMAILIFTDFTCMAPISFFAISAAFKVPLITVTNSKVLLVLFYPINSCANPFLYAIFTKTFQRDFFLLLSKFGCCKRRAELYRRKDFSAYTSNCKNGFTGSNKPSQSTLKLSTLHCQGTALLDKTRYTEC

| SMILES | mean no. of ova (50 mg/kg p.o.) [1] | EC50 [2] | EC50 [3] |
| --- | --- | --- | --- |
| CSc1nc(-c2cccc(NC(=O)CN3CCC3)c2)c2c(N)c(C(=O)NC(C)(C)C)sc2n1 [Example 1, tert-Butyl 5-amino-2-methylthio-4-(3-(2-(azetidin-1-yl)-acetamido)-phenyl)-thieno[2,3-d]pyrimidine-6-carboxamide] | 1.6 | 3.86 nM | 462 nM |
| CSc1nc(-c2cccc(NC(=O)CN3CCOCC3)c2)c2c(N)c(C(=O)NC(C)(C)C)sc2n1 [Example 2, tert-Butyl 5-amino-2-methylthio-4-(3-(2-(morpholin-4-yl)-acetamido)-phenyl)-thieno[2,3-d]pyrimidine-6-carboxamide] | 9.3 | 2.24 nM | 42 nM |
| CSc1nc(-c2cccc(NC(=O)CN3CCSCC3)c2)c2c(N)c(C(=O)NC(C)(C)C)sc2n1 [Example 3, tert-Butyl 5-amino-2-methylthio-4-(3-(2-(thiomorpholin-4-yl)-acetamido)-phenyl)-thieno[2,3-d]pyrimidine-6-carboxamide] | 19.8 | 8.03 nM | 1040 nM |
| CSc1nc(-c2cccc(NC(=O)CN3CCCCC3)c2)c2c(N)c(C(=O)NC(C)(C)C)sc2n1 [Example 4, tert-Butyl 5-amino-2-methylthio-4-(3-(2-(piperidin-1-yl)-acetamido)-phenyl)-thieno[2,3-d]pyrimidine-6-carboxamide] | – | 6.63 nM | 201 nM |
| CSc1nc(-c2cccc(NC(=O)CN3CCCC3)c2)c2c(N)c(C(=O)NC(C)(C)C)sc2n1 [Example 5, tert-Butyl 5-amino-2-methylthio-4-(3-(2-(pyrrolidin-1-yl)-acetamido)-phenyl)-thieno[2,3-d]pyrimidine-6-carboxamide] | – | 6.68 nM | 480 nM |
| CSc1nc(-c2cccc(NC(=O)CN3CCNCC3)c2)c2c(N)c(C(=O)NC(C)(C)C)sc2n1 [Example 6, tert-Butyl 5-amino-2-methylthio-4-(3-(2-(piperazin-1-yl)-acetamido)-phenyl)-thieno[2,3-d]pyrimidine-6-carboxamide] | – | 3.17 nM | 150 nM |
